Data: ChEMBL document CHEMBL4346714, “Multitarget PPARγ agonists as innovative modulators of the metabolic syndrome” (Eur J Med Chem, 2019)

Experiments:
[1] = target: T1, Hexokinase-4 (Homo sapiens) (UniProt P35557); assay: Activation of glucokinase (unknown origin) at 10 uM relative to control
T1 sequence (whole entry): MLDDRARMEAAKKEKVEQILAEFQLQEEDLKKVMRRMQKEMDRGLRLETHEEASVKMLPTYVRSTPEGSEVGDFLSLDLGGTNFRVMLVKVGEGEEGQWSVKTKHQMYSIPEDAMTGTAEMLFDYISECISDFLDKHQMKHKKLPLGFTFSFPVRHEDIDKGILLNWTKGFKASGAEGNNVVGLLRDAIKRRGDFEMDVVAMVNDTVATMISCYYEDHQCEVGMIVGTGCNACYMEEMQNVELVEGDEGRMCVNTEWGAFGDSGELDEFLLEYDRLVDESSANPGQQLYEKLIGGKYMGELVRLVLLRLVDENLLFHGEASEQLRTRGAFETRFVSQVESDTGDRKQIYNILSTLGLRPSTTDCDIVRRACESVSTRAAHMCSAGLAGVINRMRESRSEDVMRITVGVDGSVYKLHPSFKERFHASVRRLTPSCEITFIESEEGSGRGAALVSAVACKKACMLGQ

[2] = target: T2, Peroxisome proliferator-activated receptor gamma (Homo sapiens) (UniProt P37231); assay: Agonist activity at PPARgamma (unknown origin) at 10 uM by luciferase reporter gene assay relative to control
T2 sequence (whole entry): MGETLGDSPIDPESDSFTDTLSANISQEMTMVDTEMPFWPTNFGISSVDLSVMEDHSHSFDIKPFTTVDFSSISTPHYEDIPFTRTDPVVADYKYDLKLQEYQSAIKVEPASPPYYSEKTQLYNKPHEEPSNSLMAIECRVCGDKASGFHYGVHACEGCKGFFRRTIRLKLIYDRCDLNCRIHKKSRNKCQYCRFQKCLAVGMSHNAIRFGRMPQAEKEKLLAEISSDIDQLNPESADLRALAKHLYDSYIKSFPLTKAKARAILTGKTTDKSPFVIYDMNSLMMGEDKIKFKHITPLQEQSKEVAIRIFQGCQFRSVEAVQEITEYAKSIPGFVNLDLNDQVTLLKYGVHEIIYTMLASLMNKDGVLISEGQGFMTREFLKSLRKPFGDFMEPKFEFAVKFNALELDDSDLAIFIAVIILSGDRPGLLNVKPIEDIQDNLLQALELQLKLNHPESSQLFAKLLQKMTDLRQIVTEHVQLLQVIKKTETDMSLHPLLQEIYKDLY

[3] = target: T2, Peroxisome proliferator-activated receptor gamma (Homo sapiens); assay: Transactivation of PPARgamma (unknown origin) expressed in HEK293 cells at 10 uM after 24 to 48 hrs by luciferase reporter gene assay relative to control; format: cell-based
[4] = target: T1, Hexokinase-4 (Homo sapiens); assay: Activation of recombinant human glucokinase assessed as conversion of D-glucose to D-glucose-6-phosphate dehydrate at 10 uM by G6PDH/NADP coupled assay relative to control

| fold change (FC) [1] | Efficacy [2] | Efficacy [3] | fold change (FC) [4] | SMILES |
| --- | --- | --- | --- | --- |
| 2.9 | 47.1% |  |  | O=C(Cc1ccc(/C=C2\SC(=O)NC2=O)cc1[N+](=O)[O-])Nc1ccccn1 |
|  |  | 52.7% | 1.7 | CCCOc1ccc(OCc2cccc(F)c2)cc1C(=O)Nc1ccc(C(=O)O)cn1 |
| 2.9 | 48% |  |  | CC(C)OC(=O)c1ccc(NC(=O)Cc2ccc(/C=C3\SC(=O)NC3=O)cc2[N+](=O)[O-])nc1 |
| 2.7 | 47.4% |  |  | CCOC(=O)c1ccc(NC(=O)Cc2ccc(/C=C3\SC(=O)NC3=O)cc2[N+](=O)[O-])nc1 |
